Experiment [1] deals with endogenous Haspin kinase (phosphorylation of Histone H3 on Thr3) in U2OS cells. In words: H3T3ph immunofluorescence assay in U2OS cells (cellular endogenous Haspin activity). The format is cell-based. Conditions: 2.5 μM compound, 16 h, early mitotic cells; for inhibition at 2.5 µM: Homo sapiens, read-out: Inhibition of endogenous Haspin activity (H3T3 phosphorylation) compared to DMSO control. The method, then: In order to assess the ability of our most interesting compounds to inhibit cellular endogenous Haspin kinase, we evaluated their effects on the phosphorylation of Histone H3 on Thr3, a bona fide Haspin substrate (Figure 4). We treated osteosarcoma U2OS cells with 2.5 μM of selected compounds for 16 h before quantifying H3T3 phosphorylation by immunofluorescence on early mitotic cells (Figure 4A,B). […] This discrepency could be explained by the inability of this compound to cross the plasma membrane or by reduced stability in a cellular environment.
Ethical approval for this study was obtained (9 July 2025) from DGRI-LabOGM (APPROVAL NUMBER: L1-2373). U2OS cells (purchased from ATCC, Manassas, VA, USA, reference HTB-96) were grown in DMEM medium (Dulbecco’s Modified Eagle Medium, High glucose; GlutaMAX, Life Technologies, Carlsbad, CA, USA) supplemented with 10% fetal bovine serum (Gibco, Grand Island, NY, USA) in a 5% CO2 humidified atmosphere. Cells grown on coverslips were treated for 16 h with each compound or 0.025% DMSO, then fixed with 4% paraformaldehyde in PBS, permeabilized by 0.15% Triton-X100 for 2 min, and blocked for 12 min in 4% BSA in PBS. Immunofluorescence assay was performed using standard protocols with a rabbit anti-phospho-Thr3 Histone H3 and a mouse anti-a-Tubulin (B-5-1-2) obtained from Merck Millipore, Burlington, MA, USA (1/2000 dilution). Coverslips were mounted with Vectashield containing DAPI (Vector Laboratories, Newark, CA, USA). Images were acquired with a Coolsnap HQ2 CCD camera (Photometrics, Tucson, AZ, USA) on a Zeiss Axio microscope (Carl Zeiss, Oberkochen, Germany) using a 63x NA 1.46 objective. Image acquisition and processing were performed using Zen Blue (Carl Zeiss). The H3T3ph signal on chromosomes was normalized against the DAPI signal and analyzed using ImageJ software (NIH, Version 1.54p). Graphs were produced and statistical analysis was performed using GraphPad Prism 10. p-values were determined by t-test; n.s., not significant; **** p ≤ 0.0001.
Figure 4 Evaluation of selected compounds on cellular endogenous Haspin activity. (A) U2OS cells were treated with 2.5 μM of each compound or 1 μM of CHR6494 (CHR) or DMSO for 16 h. Immunofluorescence assay was performed with anti-pH3T3 antibody (green) and anti-a-Tubulin (red); DNA was labelled with DAPI (blue). Representative images of early mitotic cells for each condition are presented. Scale bar: 5 μm. (B) Scatter plot representing H3T3ph/DAPI signal ratio indicative of Haspin activity; n > 17 mitotic cells per condition. n.s., not significant; **** p ≤ 0.0001.

Another experiment has as its target T1, RnDYRK1A-kd (Rattus norvegicus, UniProt Q63470).
T1 construct: Rattus norvegicus, amino acids 1–499, pGEX-2TK; made in house; host or cells: bacteria
In words: ADP-Glo in vitro kinase inhibition assay, DYRK1A. Type of experiment: biochemical. Conditions: 10 μM ATP; for remaining activity at 1 µM: 1 μM compound; for remaining activity at 1 µM / remaining activity at 10 µM: read-out: DYRK1A % residual activity; for remaining activity at 10 µM: 10 μM compound. As for the experimental part:
We previouly reported that substitution at the 3-position with halogen atoms or pyridinyl or formyl groups was compatible with high potency toward Haspin kinase. To check if the current structural changes were in line with potent Haspin inhibition and high selectivity, enabling consideration of these compounds as possible targeting ligands for the PROTAC approach, compounds 2, 3, 8–11, and 15–17 were evaluated toward a panel of eight protein kinases, including Haspin, as well as other kinases known to be frequently cross-inhibited (CLK1, DYRK1A, CDK9/Cyclin T, GSK-3β, CK1ε, CDK5/p25, and Pim1) (Table 1). The percentage of residual kinase activity was evaluated at 10 μM and 1 μM compound concentrations. […].
Kinase inhibition was tested in 384-well plates using the ADP-GloTM assay kit (Promega, Madison, WI, USA) according to the procedure recommended by the manufacturer. Reactions were set up in a final volume of 6 μL in an appropriate kinase buffer (10 mM MgCl2, 1 mM EGTA, 1 mM DTT, 25 mM Tris-HCl pH 7.5, 50 μg/mL heparin) with either protein or peptide as the substrate in the presence of 10 μM ATP. To stop the kinase reaction, 6 μL of ADP-GloTM Kinase Reagent was added after 30 min at 30 °C. Then, after 50 min of incubation at room temperature (RT), 12 μL of Kinase Detection Reagent was added. The transmitted signal was measured after 1 h at RT using the Envision (Perkin Elmer, Waltham, MA, USA) microplate luminometer and expressed in relative light units (RLU). In order to determine the half-maximal inhibitory concentration (IC50), all assays were performed in duplicate in the absence or presence of increasing doses of the tested compounds. GraphPad Prism10 software (GraphPad Software, San Diego, CA, USA) was used to fit dose–response curves and to determine the IC50 values. Kinase activities are given as percentages of maximal activity, i.e., measured in the absence of inhibitor. Peptide substrates were obtained from Proteogenix (Schiltigheim, France).
The following protein kinases were analyzed in this study: CDK5/p25 (human, vector pGEX-2T, expressed in bacteria; kindly provided by Dr. J. H. Wang) was assayed with 0.8 μg/μL of histone H1 as substrate; HsCDK9/CyclinT (NP_001252/KAI4065659, cloned in pTEFb vector, expressed by baculovirus in Sf9 insect cells) were assayed with 0.27 μg/μL of the following peptide: […], as substrate; HsCK1ε (NP_001885, cloned in pFAST-BAC vector, expressed in Sf9 insect cells) was assayed with 0.022 μg/μL of the following peptide: […]pAYSITA (“Sp” stands for phosphorylated serine) as CK1-specific substrate; HsGSK3β (AAH12760, cloned in pFAST-BAC, expressed by baculovirus in Sf9 insect cells) were assayed with 0.010 μg/μL of GS-1 peptide, a GSK-3-selective substrate ([…]pEDEEE); HsHaspin-kd (NP_114171, kinase domain, amino acids 470–798 cloned in pGEX-6P-3, expressed in bacteria) was assayed with 0.007 μg/μL of histone H3 (1–21) peptide ([…]) as substrate; Pim-1 (KAI4018123, expressed in bacteria) was assayed with 0.8 μg/μL of histone H1 as substrate; HsCLK1 (NP_004062, cloned in pFAST-BAC, expressed in Sf9 insect cells) was assayed with 0.027 μg/μL of the peptide: […]; RnDYRK1A-kd (Rattus norvegicus, amino acids 1–499, pGEX-2TK, expressed in bacteria, gift from Dr. W. Becker, Aachen, Germany) was tested in the presence of 0.033 μg/μL of the peptide: […].
A general note: ADP-Glo turns the ADP formed in a reaction into a luminescent signal.

The results in this text go back to article PMC12655252, “Synthesis of 1H-Pyrrolo[3,2-g]isoquinoline Derivatives as Ligands Targeting Haspin Kinase” (Molecules, 2025).

With `Nc1ccc(-c2c[nH]c3cc4cnccc4cc23)cn1` [Compound 3, 5-(1H-Pyrrolo[3,2-g]isoquinolin-3-yl)pyridin-2-amine], the inhibition (commonly the drop in the measured response relative to a control, in per cent) at 2.5 µM in experiment [1] was about 43%. Further, on RnDYRK1A-kd, the remaining activity at 1 µM is 15%; the IC50 (as a rule, the concentration at which inhibition is half-maximal) is 212 nM; the remaining activity at 10 µM amounted to 0%.
For `COC(=O)/C=C/c1c[nH]c2cc3cnccc3cc12` [Compound 8, Methyl (E)-3-(1H-Pyrrolo[3,2-g]isoquinolin-3-yl)prop-2-enoate], in experiment [1], the “Inhibition of endogenous Haspin activity (H3T3 phosphorylation) compared to DMSO control” value is “did not show any significant inhibitory potential”. For the same compound, on RnDYRK1A-kd, the remaining activity at 1 µM was determined as 43%, the half-inhibitory concentration (IC50) was 1130 nM and the remaining activity at 10 µM stood at 16%.
On to `c1cc2cc3c(-c4cc[nH]n4)c[nH]c3cc2cn1` [Compound 15, 3-(1H-Pyrazol-3-yl)-1H-pyrrolo[3,2-g]isoquinoline], for which, in experiment [1], the inhibition at 2.5 µM was 66%. In addition, at RnDYRK1A-kd, the remaining activity at 1 µM is 39%, the half-maximal inhibitory concentration (IC50) turned out to be 324 nM and the remaining activity at 10 µM was found to be 1%.
The corresponding values for `c1cc2cc3c(-c4cn[nH]c4)c[nH]c3cc2cn1` [Compound 16, 3-(1H-Pyrazol-4-yl)-1H-pyrrolo[3,2-g]isoquinoline] are 77%, 11%, 163 nM and 0%.
On to `c1c[nH]c(-c2c[nH]c3cc4cnccc4cc23)c1` [Compound 17, 3-(1H-Pyrrol-2-yl)-1H-pyrrolo[3,2-g]isoquinoline], for which the inhibition at 2.5 µM in experiment [1] is about 43%. Also, at RnDYRK1A-kd, the remaining activity at 1 µM amounted to 69% and the remaining activity at 10 µM is 19%.
